Measurements taken from patent US12065434B2, “Metabolites of GLP1R agonists” (Pfizer Inc., priority 2020, dated 2024).

How the values were obtained:
[1] = tested on: monkey hepatocytes; assay: In vitro metabolism of Compound 2 in monkey cryopreserved hepatocytes; format: in vitro ADME, cynomolgus monkey; design: key to Relative abundance of metabolite of Compound 2, Monkey: ND Not detected.; trace: Trace: observed by HPLC/MS measurements only.; + Minor as assessed by HPLC/UV measurements; ++ moderate as assessed by HPLC/UV measurements; +++ major as assessed by HPLC/UV measurements.; * m/z 593 and m/z 505 co-eluted in rabbit hepatocytes.; ** m/z 591 c and m/z 593 were merged in human hepatocytes and Hepatopack.; *** m/z 607 and m/z 751 b were merged in rabbit hepatocytes; conditions: for metabolite of Compound 2 observed in monkey hepatocyte incubations: 10 μM Compound 2, 7.5×10^5 cells/mL, 1 and 4 hrs composite
Method: (§1) Male CD-1 mouse hepatocytes (lot YHL), male Wistar-Han rat hepatocytes (Celsius; product number: M000065; lot: SLA), female New Zealand rabbit hepatocytes (lot 1510147), male cryopreserved cynomolgus monkey hepatocytes (Celsius; product number: M00305; lot: DNB) and mixed-gender cryopreserved human hepatocytes (Bioreclamation; product number: S01988; lot: DCM) were obtained for the hepatocyte in-vitro assessments.
(§2) At time 0 hrs 550 μL aliquots were removed from incubations and quenched with 5 volumes of ACN containing 0.1% formic acid. At 1 and 4 hrs, 275 μL aliquots were removed and quenched as above; these were combined in the same tube to prepare a composite sample. For all hepatocyte experiments, samples were processed by centrifugation at 1900×g for 5 minutes, and then the supernatant was transferred to clean glass tubes and evaporated to dryness under a stream of N2 using a Turbovap at 37° C. Sample residues were reconstituted in mobile phase prior to analysis by HPLC/UV/MS^n.
(§3) Samples were analyzed by HPLC/UV/MS^n using a Thermo Orbitrap Elite mass spectrometer in conjunction with a Thermo Open Accela UHPLC system. A 3.0×150 mm, 2.5 μm Acquity CSH C18 HPLC column (Waters) was heated to 45° C. for separation of analytes. The mobile phase was a gradient of A): water containing 0.1% formic acid, and B): acetonitrile. The flow rate was 450 μL/min, and the following gradient program was utilized: […]
(§4) UV absorbance was monitored with a photo-diode array detector from 220-450 nm. The mass spectrometer was operated in positive-ion mode with a HESI ion source at a potential of 3.0 kV, and capillary and source heater temperatures of 380 and 300° C., respectively. Sheath, auxiliary, and sweep gas flows were set to 45, 10, and 2 units, respectively. Full scan mass spectra were acquired over the range 120-1200 m/z at a resolving power of 30,000 (specified at m/z 400). Data-dependent MS^n spectra were acquired in an automated fashion at 15,000 resolving power using CID and HCD fragmentation with normalized collision energy settings of 28 and 65 V, respectively.
(§5) Metabolites were characterized by comparisons of mass spectral fragmentation patterns with that of a Compound 2 standard. All HPLC/UV/MS^n data were processed using Xcalibur v. 2.2, and integrated UV peak areas were subjected to weighted UV binning procedures utilizing an Excel template.

[2] = tested on: human hepatocytes; assay: In vitro metabolism of Compound 2 in human cryopreserved hepatocytes; format: in vitro ADME; design: key to Relative abundance of metabolite of Compound 2, Human: ND Not detected.; trace: Trace: observed by HPLC/MS measurements only.; + Minor as assessed by HPLC/UV measurements; ++ moderate as assessed by HPLC/UV measurements; +++ major as assessed by HPLC/UV measurements.; * m/z 593 and m/z 505 co-eluted in rabbit hepatocytes.; ** m/z 591 c and m/z 593 were merged in human hepatocytes and Hepatopack.; *** m/z 607 and m/z 751 b were merged in rabbit hepatocytes; conditions: for metabolite of Compound 2 observed in human hepatocyte incubations: 10 μM Compound 2, 7.5×10^5 cells/mL, 1 and 4 hrs composite
Method: as §1, §2, §3, §4, §5

[3] = tested on: rat hepatocytes; assay: In vitro metabolism of Compound 2 in rat cryopreserved hepatocytes; format: in vitro ADME; design: key to Relative abundance of metabolite of Compound 2, Rat: ND Not detected.; trace: Trace: observed by HPLC/MS measurements only.; + Minor as assessed by HPLC/UV measurements; ++ moderate as assessed by HPLC/UV measurements; +++ major as assessed by HPLC/UV measurements.; * m/z 593 and m/z 505 co-eluted in rabbit hepatocytes.; ** m/z 591 c and m/z 593 were merged in human hepatocytes and Hepatopack.; *** m/z 607 and m/z 751 b were merged in rabbit hepatocytes; conditions: for metabolite of Compound 2 observed in rat hepatocyte incubations: 10 μM Compound 2, 7.5×10^5 cells/mL, 1 and 4 hrs composite
Method: as §1, §2, §3, §4, §5

[4] = target: T1, human GLP-1R (Homo sapiens, UniProt P43220, L260F); assay: CHO GLP-1R Clone C6 - Assay 2 (HTRF cAMP agonist assay, low receptor density); format: cell-based; conditions: CHO GLP-1R Clone C6 (low receptor density), arithmetic mean, relative to 1 μM GLP-1
T1 construct: expressed in transfected cells
T1 sequence (P43220 24-463 L260F): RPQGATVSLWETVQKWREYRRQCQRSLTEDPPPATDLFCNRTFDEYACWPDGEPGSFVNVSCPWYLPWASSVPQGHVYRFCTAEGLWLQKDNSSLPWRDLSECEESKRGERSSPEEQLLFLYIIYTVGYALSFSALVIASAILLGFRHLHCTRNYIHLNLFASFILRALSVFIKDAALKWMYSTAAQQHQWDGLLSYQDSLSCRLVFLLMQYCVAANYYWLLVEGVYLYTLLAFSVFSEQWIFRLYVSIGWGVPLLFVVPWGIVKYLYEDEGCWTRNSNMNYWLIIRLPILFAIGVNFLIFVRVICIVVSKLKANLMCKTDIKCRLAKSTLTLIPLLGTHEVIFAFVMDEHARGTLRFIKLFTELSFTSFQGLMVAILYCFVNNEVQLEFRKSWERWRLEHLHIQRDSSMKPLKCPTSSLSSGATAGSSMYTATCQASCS
Method: GLP-1R-mediated agonist activity was determined with a cell-based functional assay utilizing an HTRF (Homogeneous Time-Resolved Fluorescence) cAMP detection kit (cAMP HI Range Assay Kit; Cis Bio cat #62AM6PEJ) that measures cAMP levels in the cell. The method is a competitive immunoassay between native cAMP produced by the cells and exogenous cAMP labeled with the dye d2. The tracer binding is visualized by a mAb anti-cAMP labeled with Cryptate. The specific signal (i.e. energy transfer) is inversely proportional to the concentration of cAMP in either a standard or an experimental sample.
The human GLP-1R coding sequence (NCBI Reference Sequence NP_002053.3, including naturally-occurring variant Leu260Phe) was subcloned into pcDNA5-FRT-TO and a clonal CHO cell line stably expressing a low receptor density was isolated using the Flp-In™ T-Rex™ System, as described by the manufacturer (ThermoFisher).
Cells were removed from cryopreservation, re-suspended in 40 mL of Dulbecco's Phosphate Buffered Saline (DPBS—Lonza Cat #17-512Q) and centrifuged at 800×g for 5 minutes at 22° C. The DPBS was aspirated, and the cell pellet was re-suspended in 10 mL of complete growth medium (DMEM:F12 1:1 Mixture with HEPES, L-Gln, 500 mL (DMEM/F12 Lonza Cat #12-719F), 10% heat inactivated fetal bovine serum (Gibco Cat #16140-071), 5 mL of 100× Pen-Strep (Gibco Cat #15140-122), 5 mL of 100× L-Glutamine (Gibco Cat #25030-081), 700 μg/mL Hygromycin (Invitrogen Cat #10687010) and 15 μg/mL Blasticidin (Gibco Cat #R21001). A 1 mL sample of the cell suspension in growth media was counted on a Becton Dickinson ViCell to determine cell viability and cell count per mL. The remaining cell suspension was then adjusted with growth media to deliver 1600 viable cells per well using a Matrix Combi Multidrop reagent dispenser, and the cells were dispensed into a white 384 well tissue culture treated assay plate (Corning 3570). The assay plate was then incubated for 48 hours at 37° C. in a humidified environment (95% O2, 5% CO2)
Varying concentrations of each compound to be tested (in DMSO) were diluted in assay buffer [HBSS with Calcium/Magnesium (Lonza/BioWhittaker cat #10-527F)/0.1% BSA (Sigma Aldrich cat #A7409-1L)/20 mM HEPES (Lonza/BioWhittaker cat #17-737E)] containing 100 μM 3-isobutyl-1-methylxanthin (IBMX; Sigma cat #15879). The final DMSO concentration in the compound/assay buffer mixture is 1%.
After 48 hours, the growth media was removed from the assay plate wells, and the cells were treated with 20 μL of the serially diluted compound in assay buffer for 30 minutes at 37° C. in a humidified environment (95% O2, 5% CO2). Following the 30 minute incubation, 10 μL of labeled d2 cAMP and 10 μL of anti-cAMP antibody (both diluted 1:20 in cell lysis buffer; as described in the manufacturer's assay protocol) were added to each well of the assay plate. The plates were then incubated at room temperature and after 60 minutes, changes in the HTRF signal were read with an Envision 2104 multi-label plate reader using excitation of 330 nm and emissions of 615 and 665 nm. Raw data were converted to nM cAMP by interpolation from a cAMP standard curve (as described in the manufacturer's assay protocol) and the percent effect was determined relative to a saturating concentration of the full agonist GLP-1 (1 μM) included on each plate. EC50 determinations were made from agonist dose response curves analyzed with a curve fitting program using a 4-parameter logistic dose response equation.

[5] = Circulating metabolites of Compound 2 in rat plasma following a 1.0 mg/kg IV bolus dose; format: in vivo; conditions: 1.0 mg/kg IV bolus dose of Compound 2, pooled 0.033-24 hrs
Method: Plasma and bile samples were obtained from a bile duct cannulated rat experiment (Study PK-0111) in which a 1.0 mg/kg IV bolus dose was administered to fed male rats (N=3). No control plasma was available from this experiment.
Clin Pharmacol Ther 1981; 29(3):408-13]. The entire volume of each replicate Hamilton pool was combined to create a single pooled sample (576 μL) for analysis.
Pooled plasma and bile samples were extracted with ACN containing 0.1% formic acid, and after centrifugation at 1900×g, the supernatant was transferred to clean tubes and evaporated under N2 in a Turbovap set at 37° C. Residues were reconstituted in mobile phase (5:95 v:v ACN:0.1% aqueous formic acid) prior to analysis by HPLC/UV/MS^n.
as §3, §4, §5

Structure (SMILES) | metabolite of Compound 2 observed in monkey hepatocyte incubations [1] | metabolite of Compound 2 observed in human hepatocyte incubations [2] | metabolite of Compound 2 observed in human hepatocyte incubations ([2]; listed as m/z 751b) | metabolite of Compound 2 observed in rat hepatocyte incubations [3] | Emax [4] [%] | detected in rat plasma [5] | detected in rat plasma ([5]; listed as m/z 751b) | Relative abundance of metabolite of Compound 2, Monkey ([1]; monkey cryopreserved hepatocytes, HPLC/UV/MS) | Relative abundance of metabolite of Compound 2, Human ([2]; human cryopreserved hepatocytes, HPLC/UV/MS) | Relative abundance of metabolite of Compound 2, Rat ([3]; rat cryopreserved hepatocytes, HPLC/UV/MS) | detected in rat plasma ([5]; listed as m/z 331)
C[C@]1(c2ccc(Cl)cn2)Oc2cccc(C3CCN(Cc4nc5ccc(C(=O)O[C@@H]6O[C@H](C(=O)O)[C@@H](O)[C@H](O)[C@H]6O)cc5n4C[C@@H]4CCO4)CC3)c2O1 [Metabolite 751b] | observed in all hepatocyte incubations | observed in all hepatocyte incubations | most abundant metabolites | observed in all hepatocyte incubations | 68 | observed | detected | – | – | – | –
C[C@]1(c2ccc(Cl)cn2)Oc2cccc(C3CCNCC3)c2O1 [Metabolite 331] | observed in all hepatocyte incubations | observed in all hepatocyte incubations | – | observed in all hepatocyte incubations | – | observed | – | + | + | trace | detected
